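Following 48 hours of exposure in 96-well plates, responses at five concentrations were used to interpolate endpoints linearly. The concentration for 50% growth inhibition is given as GI50. Definition used: TGI = concentration required for complete inhibition of growth.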 Where only a bound is given, the exact number is not on record here.

The values that follow come from PubChem BioAssay (NCI).

Test systems include SW-620 colon; MALME-3M melanoma; RPMI-8226 leukemia; OVCAR-4 ovarian; SNB-75 CNS; UO-31 renal; MCF7 breast; HOP-92 NSCLC.
Holding throughout (test): inhibition of tumour cell growth, NCI panel, 48 h

In the case of `Cn1c(N)cc(=O)nc1N`, the TGI in the test on SW-620 colon, with MALME-3M melanoma, with RPMI-8226 leukemia, in the test with OVCAR-4 ovarian, in the test on SNB-75 CNS and in the test on UO-31 renal was over 100 µM throughout. In the test with MCF7 breast, the TGI is over 100 µM.

Turning to `Nc1cc2[nH]c(=O)c3cc(Cl)ccc3c2cc1Cl`, the TGI is over 100 µM with SW-620 colon; 44.6 µM in the test with MALME-3M melanoma; over 100 µM in the test with RPMI-8226 leukemia; over 100 µM in the test on OVCAR-4 ovarian; 61.8 µM with SNB-75 CNS; 30.5 µM with UO-31 renal. For the same compound, the TGI with MCF7 breast is 13.8 µM.

`Oc1c(Br)cc(Br)c2cccnc12`: the GI50 was 4.58 µM in the test on SW-620 colon; 3.21 µM in the test with MALME-3M melanoma; 3.45 µM in the test with RPMI-8226 leukemia; 4.09 µM in the test with OVCAR-4 ovarian; 10.7 µM with SNB-75 CNS; 2.56 µM in the test with UO-31 renal. In the test with MCF7 breast, the GI50 is 4.48 µM. Moreover, the TGI was 72.8 µM in the test on SW-620 colon; 19 µM in the test with MALME-3M melanoma; 24.8 µM in the test on RPMI-8226 leukemia; 97 µM in the test with OVCAR-4 ovarian; over 100 µM in the test on SNB-75 CNS; 16.5 µM in the test with UO-31 renal. In the test on MCF7 breast, this compound yielded a TGI of over 100 µM.

For the compound `C/C(=C1/N=C(c2ccccc2)OC1=O)c1cccs1`, the TGI in the test on SW-620 colon, in the test on MALME-3M melanoma, with RPMI-8226 leukemia, in the test on OVCAR-4 ovarian, with SNB-75 CNS and in the test with HOP-92 NSCLC was over 100 µM in each case. The same compound came in with a TGI in the test with MCF7 breast of over 100 µM.

Consider `COc1ccc(C(=O)CC(Cl)=C(Cl)Cl)cc1`, for which the GI50 in the test on SW-620 colon was 33.5 µM; in the test on MALME-3M melanoma, 20.4 µM; in the test with RPMI-8226 leukemia, 23.5 µM; in the test on OVCAR-4 ovarian it was 19.8 µM; in the test with UO-31 renal, 25.8 µM; with HOP-92 NSCLC, 19.3 µM. Also, in the test on MCF7 breast, the GI50 was 53.4 µM. Also, the TGI in the test with SW-620 colon was over 100 µM; in the test on MALME-3M melanoma it was 43 µM; with RPMI-8226 leukemia, 68.5 µM; in the test with OVCAR-4 ovarian, 56.1 µM; in the test on UO-31 renal, 54.7 µM; in the test with HOP-92 NSCLC, 53.7 µM. This compound also came in with a TGI in the test with MCF7 breast of over 100 µM.

For `CCOC(=O)c1ccccc1NC(c1ccccc1)c1ccc2cccnc2c1O` (configuration not stated), the GI50 is 3.89 µM in the test with SW-620 colon; 3.06 µM in the test on RPMI-8226 leukemia; 3.21 µM in the test on OVCAR-4 ovarian; 2.6 µM in the test with SNB-75 CNS; 2.03 µM in the test on UO-31 renal; 7.98 µM in the test with HOP-92 NSCLC. Besides, the GI50 in the test with MCF7 breast is 2.98 µM. In addition, the TGI was over 100 µM with SW-620 colon; over 100 µM with RPMI-8226 leukemia; over 100 µM with OVCAR-4 ovarian; 89.8 µM in the test on SNB-75 CNS; over 100 µM with UO-31 renal; over 100 µM in the test with HOP-92 NSCLC. The compound further displayed a TGI in the test with MCF7 breast of 45 µM.

Regarding `COC(=O)c1cc2c([nH]c3ccccc32)c(-c2nc3cc(N(S(=O)(=O)c4ccc(C)cc4)S(=O)(=O)c4ccc(C)cc4)c(OC)cc3cc2CO)n1`, the GI50 in the test with SW-620 colon is over 100 µM; in the test with MALME-3M melanoma, over 100 µM; in the test with OVCAR-4 ovarian, over 100 µM; in the test on SNB-75 CNS it was 33.5 µM; with UO-31 renal, over 100 µM; with HOP-92 NSCLC, over 100 µM. The GI50 in the test on MCF7 breast is over 100 µM. Also, the TGI with SW-620 colon is over 100 µM; in the test on MALME-3M melanoma, over 100 µM; with OVCAR-4 ovarian, over 100 µM; in the test with SNB-75 CNS, 98.7 µM; in the test with UO-31 renal, over 100 µM; in the test with HOP-92 NSCLC, over 100 µM. In the test with MCF7 breast, the TGI was over 100 µM.

As to `Cc1nn(-c2ccccc2)c2ncc3c(c12)C(=O)N(Cc1ccccc1)C3=O`, the GI50 is over 100 µM with SW-620 colon; 5.24 µM in the test on MALME-3M melanoma; 3.61 µM in the test with RPMI-8226 leukemia; 2.18 µM in the test with OVCAR-4 ovarian; 2.23 µM in the test with SNB-75 CNS; 2.65 µM with UO-31 renal. Also, the GI50 in the test with MCF7 breast was over 100 µM. Further, the TGI is over 100 µM with SW-620 colon; over 100 µM with MALME-3M melanoma; 31.8 µM with RPMI-8226 leukemia; 5.48 µM with OVCAR-4 ovarian; 6.64 µM in the test with SNB-75 CNS; 8.17 µM in the test with UO-31 renal. The compound also yielded a TGI in the test with MCF7 breast of over 100 µM.

In the case of `CNCc1ccc(C)c(NC(=O)c2ccc(Nc3nc(-c4ccccc4)c4ccccc4n3)cc2)c1`, the GI50 in the test on SW-620 colon is 1.84 µM; with OVCAR-4 ovarian, 1.84 µM; in the test on SNB-75 CNS, 0.842 µM; in the test on UO-31 renal, 1.67 µM; in the test with HOP-92 NSCLC, 0.687 µM; in the test on MCF7 breast it was 1.58 µM. Also, the TGI is 3.57 µM in the test on SW-620 colon; 4.79 µM in the test with OVCAR-4 ovarian; 2.32 µM in the test with SNB-75 CNS; 3.75 µM in the test on UO-31 renal; 3.24 µM in the test on HOP-92 NSCLC; 3.25 µM with MCF7 breast.

Regarding `CCCC1C2=C(C(=O)OC2=O)C2C(CC)CC3=C(C(=O)OC3=O)C12` (configuration not stated), the TGI in the test with SW-620 colon, in the test on RPMI-8226 leukemia, in the test with SNB-75 CNS, in the test with UO-31 renal, with HOP-92 NSCLC and with MCF7 breast was over 100 µM throughout.

For the compound `O=C(/C=C\c1ccc(Cl)c(Cl)c1)c1ccccc1`, the GI50 was 2.21 µM with SW-620 colon; 2.11 µM in the test with RPMI-8226 leukemia; 8.83 µM with OVCAR-4 ovarian; 11.6 µM with SNB-75 CNS; 4.09 µM with UO-31 renal; 1.89 µM with MCF7 breast. Besides, the TGI in the test on SW-620 colon was determined as 5.52 µM; in the test with RPMI-8226 leukemia, 4.86 µM; with OVCAR-4 ovarian, 21.3 µM; with SNB-75 CNS, 23.8 µM; in the test with UO-31 renal it was 16.7 µM; in the test on MCF7 breast, 5.58 µM.

As to `S=C(N/N=C/c1ccccc1)NC1CC(c2ccccc2)Oc2ccccc21` (configuration not stated), the TGI in the test on SW-620 colon was over 100 µM; in the test with MALME-3M melanoma, over 100 µM; in the test with OVCAR-4 ovarian, 71.3 µM; in the test on SNB-75 CNS it was 31.3 µM; with UO-31 renal it was over 100 µM; with HOP-92 NSCLC it was 10.2 µM.
